Reference: patent publication US9023857B2, “Substituted 6-(2-aminobenzylamino)purine derivatives, their use as medicaments and preparations containing these compounds” (Univerzita Palackeho V Olomouci, priority 2009, dated 2015)

Legend:
CDK9 = CDK9 (Homo sapiens, UniProt P50750); details: Olomoucine II compared with Roscovitine; cited from earlier work
[1] = test system: tumor suppressor protein p53; details: Olomoucine II compared with Roscovitine; cited from earlier work
[2] = test system: C-terminal domain (CTD) of RNA polymerase II, serine 2 and serine 5; test: Immunoblotting: phosphorylation of the C-terminal domain of RNA polymerase II; assay type: cell-based; details: 12 hours treatment, cell lines with incorporated SV40, all tested cell lines (FIG. 12A)
Description: Cell were detached with rubber policeman and washed three times with ice-cold PBS and lysed in buffer (50 mM Tris, pH 7.4, 250 mM NaCl, 5 mM EDTA, 50 mM NaF, 1 mM Na3VO4, 1% Nonidet P40) containing mixture of protease and phosphatase inhibitors (Sigma-Aldrich St Louis, Mo., USA). 20 μg of total proteins were separated by SDS-polyacrylamide gel electrophoresis (SDS-PAGE) on 8% or 10% gels and transferred onto nitrocellulose membranes. Membranes were blocked in 5% milk and 0.1% Tween 20 in PBS and probed overnight with specific monoclonal antibodies or rabbit polyclonal sera. Primary antibodies specific for RNA polymerase II (all from Santa Cruz Biotechnology, California, USA) included: (i) N-20 used at 1 μg/ml, (ii) H14, specific for form phosphorylated at phosphoserine 5, used at 6 μg/ml and (iii) H5, specific for form phosphorylated at phosphoserine 2 used at 4 μg/ml. Additional primary mAb used in immunblots included (iv) anti-p53 (DO-1, in house) used at 1 μg/ml, (v) anti-p21^WAF1 (118, in house), used at 1 μg/ml), (vi) anti-actin (A-2066, Sigma-Aldrich St Louis, Mo., USA) used at 1 μg/ml, (vii) anti-T-antigen (419, in house), used at 1 μg/ml. All primary antibodies were diluted in PBS containing 5% powdered milk; 0.1% Tween 20. Peroxidase conjugated rabbit anti-mouse immunoglobulin or porcine anti-rabbit immunoglobulin antisera (DAKO, Glostrup, Denmark) were used as the secondary antibodies and visualised with ECL reagents (Amersham-Pharmacia, Little Chalfont, UK).
Modulation of expression from the HIV promoter by CDKI treatment may be mediated by transcriptional regulation. At the C-terminus of the largest subunit of RNA Pol II is an important regulatory domain referred to as CTD (C-terminal domain). We therefore investigated the effect of CDKIs on CTD serine 2 and serine 5 phosphorylation. […] Although the functions of CDKs and RNA polymerase II were suppressed, the expression from incorporated viral promoters was enhanced.
Cell were detached with rubber policeman and washed three times with ice-cold PBS and lysed in buffer (50 mM Tris, pH 7.4, 250 mM NaCl, 5 mM EDTA, 50 mM NaF, 1 mM Na3VO4, 1% Nonidet P40) containing mixture of protease and phosphatase inhibitors (Sigma-Aldrich St Louis, Mo., USA). 20 μg of total proteins were separated by SDS-polyacrylamide gel electrophoresis (SDS-PAGE) on 8% or 10% gels and transferred onto nitrocellulose membranes. Membranes were blocked in 5% milk and 0.1% Tween 20 in PBS and probed overnight with specific monoclonal antibodies or rabbit polyclonal sera. […]

HSV-1 = test: Plaque number reduction assay, HSV-1 on HFFF; assay type: cell-based, Herpes simplex virus type 1 strain 17
HSV-2 = test: Plaque number reduction assay, HSV-2 on HFFF; assay type: cell-based, HSV-2 strain HG52
VV = assay type: cell-based, Vaccinia virus strain WR; details: Vaccinia virus on HFFF
HAd4 = test: Plaque number reduction assay, HAd4 on A549; assay type: cell-based, Human adenovirus type 4 (HAdV-4) strain RI-6
HCMV = test: Plaque number reduction assay, HCMV on HFFF; assay type: cell-based, Human cytomegalovirus strain Toledo
MV = MV syncytium reduction assay in B95a cells; assay type: cell-based, Measles virus wildtype strain WTFb
IV = assay type: cell-based, Influenza Virus H1N1 strain A/PR/8/34; details: MDCK cells
SV40 large T-antigen = assay type: cell-based; details: SV40-infected MCF-7 and T47D; 20 μM Roscovitine or 8 μM 105 (FIG. 8)
[3] = test system: SV40 large T-antigen in COS-1 cells; test: Expression from SV40 promoter incorporated in the cellular genome (COS-1 cells); assay type: cell-based; details: COS-1 cells (FIG. 10)
Description: Cell were detached with rubber policeman and washed three times with ice-cold PBS and lysed in buffer (50 mM Tris, pH 7.4, 250 mM NaCl, 5 mM EDTA, 50 mM NaF, 1 mM Na3VO4, 1% Nonidet P40) containing mixture of protease and phosphatase inhibitors (Sigma-Aldrich St Louis, Mo., USA). 20 μg of total proteins were separated by SDS-polyacrylamide gel electrophoresis (SDS-PAGE) on 8% or 10% gels and transferred onto nitrocellulose membranes. Membranes were blocked in 5% milk and 0.1% Tween 20 in PBS and probed overnight with specific monoclonal antibodies or rabbit polyclonal sera. Primary antibodies specific for RNA polymerase II (all from Santa Cruz Biotechnology, California, USA) included: (i) N-20 used at […] (ii) H14, specific for form phosphorylated at phosphoserine 5, used at 6 μg/ml and (iii) H5, specific for form phosphorylated at phosphoserine 2 used at 4 μg/ml. Additional primary mAb used in immunblots included (iv) anti-p53 (D0-1, in house, […]) used at 1 μg/ml, (v) anti-p21^WAF1 (118, in house), used at 1 μg/ml), (vi) anti-actin (A-2066, Sigma-Aldrich St Louis, Mo., USA) used at 1 μg/ml, (vii) anti-T-antigen (419, in house, Lane), used at 1 μg/ml. All primary antibodies were diluted in PBS containing 5% powdered milk; 0.1% Tween 20. […]

[4] = test system: HIV promoter (pHIV-lacZ, extrachromosomal) in H1299-TAT cells; test: β-galactosidase expression from pHIV-lacZ transiently transfected to H1299-TAT; details: H1299-TAT cells (FIG. 11)
[5] = test system: CMV promoter (plasmid pCMV-lacZ); test: β-galactosidase expression from transiently transfected pCMV-lacZ in MCF-7 and T47D; details: transiently transfected MCF-7 and T47D (FIG. 9)
[6] = test system: HIV promoter integrated into cellular DNA (H1299-HIV cells); test: β-galactosidase expression from pHIV-lacZ incorporated to cellular genome (H1299-HIV); details: HIV promoter integrated into cellular DNA (FIG. 11)

Sequence of CDK9 (P50750 whole entry, species assumed): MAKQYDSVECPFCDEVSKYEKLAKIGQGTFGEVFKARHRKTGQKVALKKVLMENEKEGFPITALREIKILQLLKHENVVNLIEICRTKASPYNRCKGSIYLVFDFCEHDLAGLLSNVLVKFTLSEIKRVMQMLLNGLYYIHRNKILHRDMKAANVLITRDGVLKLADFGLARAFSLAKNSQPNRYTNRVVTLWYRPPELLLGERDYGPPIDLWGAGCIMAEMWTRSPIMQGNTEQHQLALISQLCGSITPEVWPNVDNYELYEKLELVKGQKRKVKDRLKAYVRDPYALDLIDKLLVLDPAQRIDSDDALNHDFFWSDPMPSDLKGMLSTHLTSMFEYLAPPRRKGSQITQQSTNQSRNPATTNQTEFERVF
Sequence of CDK9 (O60563 whole entry partner, species assumed): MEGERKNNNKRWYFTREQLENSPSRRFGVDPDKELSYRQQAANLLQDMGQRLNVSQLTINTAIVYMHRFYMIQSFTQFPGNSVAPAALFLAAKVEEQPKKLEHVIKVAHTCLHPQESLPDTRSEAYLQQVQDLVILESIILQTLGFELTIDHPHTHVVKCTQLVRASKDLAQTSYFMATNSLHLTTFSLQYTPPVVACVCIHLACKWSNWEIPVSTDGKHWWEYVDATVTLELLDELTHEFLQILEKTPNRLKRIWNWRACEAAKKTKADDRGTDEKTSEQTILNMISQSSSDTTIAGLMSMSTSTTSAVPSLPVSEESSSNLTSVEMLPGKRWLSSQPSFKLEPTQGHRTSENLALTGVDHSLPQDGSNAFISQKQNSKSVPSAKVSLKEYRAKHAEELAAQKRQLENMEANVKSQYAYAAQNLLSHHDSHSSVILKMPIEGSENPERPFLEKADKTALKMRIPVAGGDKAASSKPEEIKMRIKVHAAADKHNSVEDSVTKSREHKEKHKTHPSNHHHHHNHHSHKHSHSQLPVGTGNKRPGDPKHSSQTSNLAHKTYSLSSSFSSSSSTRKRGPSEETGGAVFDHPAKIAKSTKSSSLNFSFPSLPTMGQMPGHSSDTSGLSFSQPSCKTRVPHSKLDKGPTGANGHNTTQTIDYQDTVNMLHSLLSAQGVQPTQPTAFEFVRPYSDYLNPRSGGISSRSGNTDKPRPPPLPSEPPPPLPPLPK

SMILES | higher inhibitory activity for CDK9 (CDK9) [fold] | lower concentrations inducing nuclear accumulation and transcriptional activation of p53 [1] | phosphorylation of both serine 2 and serine 5 of RNA polymerase II CTD [2] | inhibition of virus replication (in words) (HSV-1) | inhibition of virus replication (in words) (HSV-2) | inhibition of virus replication (in words) (VV) | inhibition of virus replication (in words) (HAd4) | inhibition of virus replication (in words) (HCMV) | inhibition of virus replication (in words) (MV) | inhibition of virus replication (in words) (IV) | level of large T-antigen (SV40 large T-antigen) | large T-antigen expression [3] | expression from pHIV-lacZ (extrachromosomal location), β-galactosidase readout [4] | expression from CMV promoter (β-galactosidase activity) [5] | increase of reporter readout [6] [times]
CC[C@H](CO)Nc1nc(NCc2ccccc2O)c2ncn(C(C)C)c2n1 [Olomoucine II] | 10 | 2-3 fold |  |  |  |  |  |  |  |  |  |  |  |  | 
CC[C@H](CO)Nc1nc(NCc2ccccc2)c2ncn(C(C)C)c2n1 [Roscovitine, 2-(R)-(1-Ethyl-2-hydroxyethylamino)-6-benzylamino-9-isopropylpurine, reference compound] |  |  | inhibited | did not inhibit | did not inhibit | no overt effect | inhibited HAd4 replication | equally sensitive | ineffective | ineffective | reduced level | stimulated large T-antigen expression | inhibited | inhibited expression | 2.5
